Measured values from patent EP0967201A1, “Pharmaceutical agents containing sulfonamids as matrix metalloproteinase inhibitors” (Roche Diagnostics GmbH, priority 1998, dated 1999).
pIC50: −log10 of the molar value.

What was measured:
MMP-9 = MMP-9 (Homo sapiens, UniProt P14780); experiment: MMP inhibition enzyme assay, performed in an analogous manner to MMP-8; format: biochemical; settings: compound concentration 0.21 µM (100 ng/ml); read-out: MMP-9 Inhib. [%]
Protocol: (§1) In order to determine the inhibition of MMPs, for example MMP-8, the catalytic domain (isolation and purification see for example Schnierer, S., Kleine, T., Gote, T., Hillemann, A., Knäuper, V., Tschesche, H.,Biochem. Biophys. Res. Commun. (1993) 191, 319-326) is incubated with inhibitors having various concentrations. Subsequently, the initial reaction rate in the conversion of a standard substrate is measured in a manner analogous to Grams F. et al., FEBS 335 (1993) 76-80). Alternatively the percent inhibition will be determined at a distant inhibitor concentration.
(§2) The assays for other MMPs are performed in a analogous manner. • Assay buffer: 50 mM Tris/HCI pH 7.6 (Tris= Tris-(hydroxymethyl)-aminomethan) 100 mM NaCl/10 mM CaCl2-/5% MeOH (if necessary) • Enzyme: 8 nM catalytic domain (Met80-Gly242) of human neutrophil collagenase • Substrate: 10 microM DNP-Pro-Leu-Gly-Leu-Trp-Ala-D-Arg-NH2 • Total assay volume: 1 ml

MMP-8 = molecular target: T1, MMP-8 (Homo sapiens, UniProt P22894); experiment: MMP inhibition enzyme assay (initial reaction rate, standard substrate DNP-Pro-Leu-Gly-Leu-Trp-Ala-D-Arg-NH2); format: biochemical; settings: 8 nM catalytic domain (Met80-Gly242) of human neutrophil collagenase; 10 microM substrate; pH 7.6; read-out: MMP-8 Inhib. [%] IC50
T1 construct: catalytic domain (Met80-Gly242) of human neutrophil collagenase; made in house
Protocol: as §1, §2

T1 sequence (P22894 100-262 limits assumed): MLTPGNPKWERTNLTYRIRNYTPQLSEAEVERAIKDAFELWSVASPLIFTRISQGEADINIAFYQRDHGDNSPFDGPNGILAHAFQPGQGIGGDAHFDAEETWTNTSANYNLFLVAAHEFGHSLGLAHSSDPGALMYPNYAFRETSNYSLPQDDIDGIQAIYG
Sequence of MMP-9 (P14780 94-707, species assumed): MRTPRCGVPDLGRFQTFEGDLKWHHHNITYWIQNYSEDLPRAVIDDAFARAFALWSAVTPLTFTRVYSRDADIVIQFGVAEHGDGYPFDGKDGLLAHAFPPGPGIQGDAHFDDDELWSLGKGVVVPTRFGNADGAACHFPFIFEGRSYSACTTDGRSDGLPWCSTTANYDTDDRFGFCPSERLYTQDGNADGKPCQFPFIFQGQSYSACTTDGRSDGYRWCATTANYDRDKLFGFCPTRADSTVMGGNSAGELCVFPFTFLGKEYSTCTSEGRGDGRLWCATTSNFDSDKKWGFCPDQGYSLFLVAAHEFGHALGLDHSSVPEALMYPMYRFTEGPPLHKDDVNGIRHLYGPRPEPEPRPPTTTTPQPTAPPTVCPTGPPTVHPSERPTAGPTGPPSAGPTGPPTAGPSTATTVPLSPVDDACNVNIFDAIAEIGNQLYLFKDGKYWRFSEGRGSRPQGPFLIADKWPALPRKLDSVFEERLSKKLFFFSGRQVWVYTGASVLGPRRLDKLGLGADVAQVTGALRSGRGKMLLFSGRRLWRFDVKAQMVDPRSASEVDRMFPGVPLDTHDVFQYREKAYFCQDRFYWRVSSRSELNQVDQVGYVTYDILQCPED

Compound	inhibition at 0.21 µM (MMP-9) [%]	pIC50 (MMP-8)
O=C(C[C@H](NS(=O)(=O)c1ccc(-c2ccc(Cl)cc2)cc1)C(=O)O)OCc1ccccc1 [Example 2, L-N-(p-Chlorobiphenylsulfonyl)-aspartic acid-β-benzylester]	38	7.31
O=C(O)[C@H](CSCc1ccccc1)NS(=O)(=O)c1ccc(-c2ccc(Cl)cc2)cc1 [Example 1, N-(p-Chloro-biphenylsulfonyl)-S-benzyl-cysteine]		7.67
